Results reported in US20160128982A1, “ANTIMICROBIAL COMPOSITIONS AND METHODS OF USE” (DERMCARE-VET PTY LTD, priority 2013, published 2016).

Tests used:
[1] = test system: Staphylococcus pseudintermedius; assay: Agar dilution MIC and FICI (Example 2); type: cell-based
Description: (§1) The MIC of PHMB, miconazole and mixtures of PHMB and miconazole were determined by adding varying concentrations of each component or their combination to molten Mueller-Hinton agar and SAB agar. The miconazole was initially dissolved in propylene glycol but dilutions were prepared by diluting this solution with water.
(§2) The concentrations of miconazole, PHMB or combination of PHMB and miconazole tested included:
(§3) A drop of microbial suspension containing one of: • a) Staphylococcus pseudintermedius and • b) Candida albicans
(§4) was added to a MH agar plate and SAB plate respectively of each concentration of each concentration of miconazole, PHMB and combinations thereof and the MH plates were incubated for 24 to 48 hours at 37° C. and the SAB plates were incubated at 20 to 35° C. for 48 hours. Two isolates of Staphylococcus pseudintermedins of different origin were used.
(§5) After incubation the plates were examined to determine the lowest concentration that inhibited growth of the microbe.
(§6) The concentrations were used to calculate the Fractional Inhibitory Concentration Index (FICI) which is a measure of synergism between the components in the combination. The FICI is calculated using the following equations:
(§7) FICMICONAZOLE=MICMICONAZOLE+PHMB/MICMICONAZOLE
(§8) FICPHMB=MICPHMB+MICONAZOLE/MICPHMB
(§9) FICI=FICMICONAZOLE+FICPHMB
(§10) FICI≦0.5 Indicates synergy between components
(§11) FICI>0.5-4.0 indicates no interaction between components
(§12) FICI>4.0 indicates antagonism between components

Candida albicans = assay: Agar dilution MIC and FICI (Example 2); type: cell-based; settings: miconazole alone
Description: as §1, §2, §3, §4, §5, §6, §7, §8, §9, §10, §11, §12

[2] = test system: S. pseudintermedius isolates; assay: Agar dilution MIC and FICI, isolates from dogs (Example 3); type: cell-based, Staphylococcus pseudintermedius; settings: miconazole alone
Description: (§13) The miconazole was initially dissolved in propylene glycol but dilutions were prepared by diluting this solution with water. […] Two isolates of Staphylococcus pseudintermedins of different origin were used. After incubation the plates were examined to determine the lowest concentration that inhibited growth of the microbe. The concentrations were used to calculate the Fractional Inhibitory Concentration Index (FICI) which is a measure of synergism between the components in the combination. The FICI is calculated using the following equations: […]≦0.5 Indicates synergy between components FICI>0.5-4.0 indicates no interaction between components FICI>4.0 indicates antagonism between components The procedure from Example 2 was repeated with different bacterial and fungal isolates obtained from dogs with bacterial or fungal infections. Eight S. pseudintermedius isolates obtained from eight different dogs and three M. pachydermatis isolates from three different dogs were analysed.

[3] = test system: Staphylococcus pseudintermedius; assay: Well diffusion, zone of inhibition on Mueller-Hinton agar; type: cell-based; settings: 37° C. 18 to 24 hours; for Zone of Inhibition: 50 μL per well
Description: (§14) 1. To determine whether propylene glycol was a suitable solvent to solubilize miconazole. A Mueller-Hinton agar (MH) plate containing a well was inoculated with Staphylococcus pseudintermedius and a Sabouraud dextrose agar (SAB) plate containing a 6 mm well was inoculated with Malassezia pachydermatis. The wells were filled with 50 μL propylene glycol and the MH plate were incubated at 37° C. for 18 to 24 hours and the SAB plate was incubated at 30 to 35° C. for 72 hours. The plates were then observed for any inhibition of microbial growth around the well.
(§15) 2. To determine suitable concentrations of miconazole and PHMB, MH agar plates containing wells were inoculated with S. pseudintermedius and SAB plates containing wells were inoculated with M. pachydermatis. The wells were filled with 50 μL of varying concentrations of miconazole or PHMB. The MH plates were incubated at 37° C. for 18 to 24 hours and the SAB plates were incubated at 30 to 35° C. for 48 hours.
(§16) After incubation, the diameter of the zone of inhibition around the well was measured.

Malassezia pachydermatis = assay: Well diffusion, zone of inhibition on Sabouraud dextrose agar; type: cell-based
Description: as §14, §15, §16

[4] = test system: M. pachydermatis isolates; assay: Agar dilution MIC and FICI, isolates from dogs (Example 3); type: cell-based, Malassezia pachydermatis; settings: miconazole alone
Description: as §13

Row | MIC Micon % ([1]; miconazole alone, two isolates of different origin) | MIC Micon % (Candida albicans) | MIC miconazole ([2]; isolate 1) | MIC miconazole ([2]; isolate 2) | MIC miconazole ([2]; isolate 3) | MIC miconazole ([2]; isolate 4) | MIC miconazole ([2]; isolate 5) | MIC miconazole ([2]; isolate 6) | MIC miconazole ([2]; isolate 7) | MIC miconazole ([2]; isolate 8) | MIC miconazole ([4]; isolate 1) | MIC miconazole ([4]; isolate 2) | MIC miconazole ([4]; isolate 3) | Structure (SMILES) | concentration at which an antimicrobial effect begins ([1]; used alone) | Zone of Inhibition ([3]; Miconazole concentration 0.0009%) | Zone of Inhibition ([3]; Miconazole concentration 0.0019%) | Zone of Inhibition ([3]; Miconazole concentration 0.0039%) | Zone of Inhibition (Malassezia pachydermatis; Miconazole concentration 0.0009%, 50 μL per well, 30 to 35° C. 48 hours) | inhibition of microbial growth around the well ([3]; 50 μL propylene glycol per well) | inhibition of microbial growth around the well (Malassezia pachydermatis; 50 μL propylene glycol in 6 mm well, 30 to 35° C. 72 hours)
1 | 0.00012% | 0.00095% | 0.00012% | 0.00012% | 0.00012% | 0.00012% | 0.00012% | 0.00012% | 0.00012% | 0.00012% | 0.00003% | 0.00006% | 0.000015% | Clc1ccc(COC(Cn2ccnc2)c2ccc(Cl)cc2Cl)c(Cl)c1 (centres unmarked) [miconazole] | about 0.00012 wt % | 14-17 mm | 14-16 mm | 17-18 mm | 25 mm |  | 
2 |  |  |  |  |  |  |  |  |  |  |  |  |  | CC(O)CO (centres unmarked) [propylene glycol] |  |  |  |  |  | No zone of inhibition | No zone of inhibition
